For two compounds, Ki results are on record in BindingDB's records for doi:10.1021/jm970742b (University of Pennsylvania, 1998).

The target of this test is Sodium-dependent dopamine transporter (Rattus norvegicus, UniProt P23977). The test can be described thus: In vitro binding affinity towards dopamine transporter in rat striatal homogenate with [125I]IPT as the radioligand.
Chain of Sodium-dependent dopamine transporter (P23977 whole entry): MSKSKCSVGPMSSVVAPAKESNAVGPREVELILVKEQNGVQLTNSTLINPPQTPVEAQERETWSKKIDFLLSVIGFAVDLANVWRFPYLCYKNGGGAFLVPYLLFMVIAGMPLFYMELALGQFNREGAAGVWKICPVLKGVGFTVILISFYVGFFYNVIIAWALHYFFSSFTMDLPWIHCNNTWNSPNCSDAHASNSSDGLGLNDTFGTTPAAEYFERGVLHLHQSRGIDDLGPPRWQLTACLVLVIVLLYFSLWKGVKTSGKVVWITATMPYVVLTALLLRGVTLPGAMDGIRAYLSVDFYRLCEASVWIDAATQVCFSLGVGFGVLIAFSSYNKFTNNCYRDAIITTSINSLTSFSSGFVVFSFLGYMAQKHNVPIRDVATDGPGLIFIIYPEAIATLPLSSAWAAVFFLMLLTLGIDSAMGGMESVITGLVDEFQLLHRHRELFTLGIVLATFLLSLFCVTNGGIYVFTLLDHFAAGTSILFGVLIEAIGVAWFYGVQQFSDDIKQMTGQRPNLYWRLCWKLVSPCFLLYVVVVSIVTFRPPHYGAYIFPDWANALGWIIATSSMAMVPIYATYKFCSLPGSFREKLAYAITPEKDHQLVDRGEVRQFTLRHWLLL

In the case of `CN1C2CCC1[C@H](c1ccc(Cl)cc1)[C@H]2CN1CC[S][Re]2(=[O])[S]CC[N]2CC1` (stereo partly drawn) [2-[[2-[[[3-(4-chlorophenyl)-8-methyl-8-azabicyclo[3.2.1]oct-2-yl]methyl](2-mercaptoethyl)amino]ethyl]amino]ethanethiolato(3-)-oxo-[1R-(exo-exo)]-;2-{Oxo[N(R),N-bis(2-mercaptoethyl)ethylenediaminato]rhenium(V)methyl}-3-(4-chlorophenyl)tropane], the inhibitory constant (Ki) came out at 13.9 nM.

In turn, `CN1C2CCC1[C@H](c1ccc(Cl)cc1)[C@@H]2CN1CC[S][Re]2(=[O])[S]CC[N]2CC1` (stereo partly drawn) [2-[[2-[[[3-(4-chlorophenyl)-8-methyl-8-azabicyclo[3.2.1]oct-2-yl]methyl](2-mercaptoethyl)amino]ethyl]amino]ethanethiolato(3-)-oxo-[1R-(exo-exo)]-;2-{Oxo[N(S),N-bis(2-mercaptoethyl)ethylenediaminato]rhenium(V)methyl}-3-(4-chlorophenyl)tropane] had an inhibition constant (Ki) of 8.42 nM. This Ki is about 1.7-fold lower than that of the compound before.
